Structures can show the parent of a compound that is named as a salt.
biological target: T1, human farnesyl transferase (Homo sapiens, UniProt P49354+P49356); test: inhibition of farnesyl transferase ((3H) farnesyl transfer from (3H) FPP to p21 H-ras); format: biochemical; details: not given
T1 construct: human farnesyl transferase purified from THP1 cell cultures; endogenous in cells; host or cells: THP1 cell cultures (enzyme purified from the cells)
Method: Farnesyl transferase activity is determined by the amount of (^3 H) farnesyl transferred from (^3 H) farnesylpyrophosphate [(^3 H) FPP] to the p21 H-ras protein. The standard reaction mixture is composed, for a final volume of […], of 50 mM Tris-HCl, 5 mM MgCl2, 5 mM dithiotreitol, 0.2% octyl b-D-glucopyranoside, 200 picomol p21 H-ras, 4.5 picomol (^3 H) FPP (activity 61000 dpm/picomol).
Reaction is initiated by adding approximately 5 ng of human farnesyl transferase purified from THP1 cell cultures. After incubation for 20 minutes at 37° C. in a microtitration plate containing 96 1-cm^3 wells per plate (Titer Plate®, Beckman), the reaction is stopped by adding 0.4 cm^3 of 0.1% SDS in methanol at 0° C. The mixture is then treated with 0.4 cm^3 of 30% trichloroacetic® acid (TCA) in methanol. The plates are left in ice for 1 hour. The precipitated contents are then retained on Filtermat®, Pharmacia), glass® fibre membranes with the filtration unit (Combi Cell Harvester®, Skatron), and rinsed with 6% trichloroacetic acid in distilled water. The membranes are dried in a microwave oven, then impregnated with scintillation medium by melting of Meltilex® (Pharmacia) under hot air, and lastly counted in cpm in a b-Plate counter® (LKB). Each test is repeated 3 times.
The unit of activity is defined as 1 picomole of (^3 H) FPP transferred to p21 H-ras in 20 minutes.
The percentage inhibition values are obtained by comparison of the tests with and without inhibitor after deduction of blanks, the IC50 values being measured on the basis of the inhibitions obtained with 9 different concentrations using Enzfitter® or Grafit® software.

Compound	IC50 [nM]
CCOP(=O)(C[C@]12CN(C(=O)Cc3ccccc3OC)C[C@H]1[C@@]1(c3ccccc3)CC[C@@H]2c2ccccc21)OCC (relative stereo) [Example 22, diethyl ester of [(3aRS, 4SR, 9SR, 9aRS)-4,9-ethano-2-(2-methoxyphenyl)acetyl-9-phenyl-2,3,3a,4,9,9a-hexahydro-1H-benzo[f]isoindol-3a-yl]methylphosphonic acid]	10000
COc1ccccc1OC(=O)N1C[C@H]2[C@@]3(c4ccccc4)CC[C@H](c4ccccc43)[C@@]2(C(=O)O)C1 (relative stereo) [Example 27, (3aRS, 4SR, 9SR, 9aRS)-4,9-ethano-2-(2-methoxyphenyl)oxycarbonyl-9-phenyl-1,2,3,3a,9,9a-hexahydro-1H-benzo[f]isoindole-3a-carboxylic acid]	5800
O=C(Cc1ccccc1Br)N1C[C@H]2[C@@]3(c4ccccc4)CC[C@H](c4ccccc43)[C@@]2(C(=O)O)C1 (relative stereo) [Example 28, (3aRS, 4SR, 9SR, 9aRS)-4,9-ethano-2-(2-bromophenyl)acetyl-9-phenyl-2,3,3a,4,9,9a-hexahydro-1H-benzo[f]isoindole-3a-carboxylic acid]	3050
CSc1ccccc1CC(=O)N1C[C@H]2[C@@]3(c4ccccc4)CC[C@H](c4ccccc43)[C@@]2(C(=O)O)C1 (relative stereo) [Example 30]	600
C=C(C(=O)N1C[C@@H]2[C@]3(c4ccccc4)CC[C@@H](c4ccccc43)[C@]2(C(=O)O)C1)c1ccccc1OC (relative stereo) [Example 38, (3aRS,4SR,9SR,9aRS)-4,9-ethano-2-[2-(2-methoxyphenyl)prop-2-en-1-oyl]-9-phenyl-2,3,3a,4,9,9a-hexahydro-1H-benzo[f]isoindole-3a-carboxylic acid]	100
COc1ccccc1CC(=O)N1C[C@@H]2[C@]3(c4ccccc4)CC[C@@H](c4ccc(I)cc43)[C@]2(C(=O)O)C1 (relative stereo) [Example 43, (3aRS,4SR,9SR,9aRS)-4,9-ethano-7-iodo-2-(2-methoxyphenyl)acetyl-9-phenyl-2,3,3a,4,9,9a-hexahydro-1H-benzo[f]isoindole-3a-carboxylic acid]	700
COc1ccccc1CCC(=O)N1C[C@@H]2[C@]3(c4ccccc4)CC[C@@H](c4ccccc43)[C@]2(C(=O)O)C1 (relative stereo) [Example 59, (3aRS,4SR,9SR,9aRS)-4,9-Ethano-2-(2-methoxyphenyl)propionyl-9-phenyl-2,3,3a,4,9,9a-hexahydro-1H-benzo[f]isoindole-3a-carboxylic acid]	5000
O=C(Cc1ccccc1O)N1C[C@@H]2[C@]3(c4ccccc4)CC[C@@H](c4ccccc43)[C@]2(C(=O)O)C1 (relative stereo) [Example 60, (3aRS,4SR,9SR,9aRS)-4,9-Ethano-2-(2-hydroxyphenyl)acetyl-9-phenyl-2,3,3a,4,9,9a-hexahydro-1H-benzo[f]isoindole-3a-carboxylic acid]	1800

same assay, conditions: human farnesyl transferase purified from THP1 cell cultures; p21 H-ras substrate; 20 minutes at 37° C.; 9 concentrations; read-out: in vitro inhibitory activity IC50

Compound	IC50 [nM]
COc1ccccc1CC(=O)N1C[C@H]2[C@@]3(c4ccccc4)CC[C@H](c4ccccc43)[C@@]2(CP(=O)(O)O)C1 (relative stereo) [Example 23]	2600
COc1ccccc1CC(=O)N1C[C@H]2[C@@]3(c4ccccc4)CC[C@H](c4ccccc43)[C@@]2(CC(C(=O)O)C(=O)O)C1 (relative stereo) [Example 24, 2-{(3aRS, 4SR, 9SR, 9aRS)-4,9-ethano-[(2-methoxyphenyl)acetyl]-9-phenyl-1,2,3,3a,9,9a-hexahydro-1H-benzo[f]isoindole-3a-}-methylmalonic acid]	4200
COc1ccccc1CC(=O)N1C[C@H]2[C@@]3(c4ccccc4)CC[C@H](c4ccccc43)[C@@]2(CCC(=O)O)C1 (relative stereo) [Example 25, 3-[(3aRS, 4SR, 9SR, 9aRS)-4,9-ethano-2-(2-methoxyphenyl)acetyl-9-phenyl-1,2,3,3a,9,9a-hexahydro-1H-benzo[f]isoindol-3a-yl]propionic acid]	2600
COc1ccccc1CC(=O)N1C[C@H]2[C@@]3(c4ccccc4)CC[C@H](c4ccccc43)[C@@]2(CSCCC(=O)O)C1 (relative stereo) [Example 26, 3-[(3aRS, 4SR, 9SR, 9aRS)-4,9-ethano-2-(2-methoxyphenyl)acetyl-9-phenyl-2,3,3a,4,9,9a-hexahydro-1H-benzo[f]isoindol-3a-yl]methylthiopropanoic acid]	2300
CC(=O)Oc1ccccc1CC(=O)N1C[C@H]2[C@@]3(c4ccccc4)CC[C@H](c4ccccc43)[C@@]2(C(=O)O)C1 (relative stereo) [Example 29, (3aRS, 4SR, 9SR, 9aRS)-4,9-ethano-2-(2-acetoxyphenyl)acetyl-9-phenyl-2,3,3a,4,9,9a-hexahydro-1H-benzo[f]isoindole-3a-carboxylic acid]	2300
O=C(Cc1ccccc1OCCCN1CCCC1)N1C[C@H]2[C@@]3(c4ccccc4)CC[C@H](c4ccccc43)[C@@]2(C(=O)O)C1 (relative stereo) [Example 32, hydrochloride of (3aRS, 4SR, 9SR, 9aRS)-4,9-ethano-2-[2-(3-pyrrolidinylpropyl)oxyphenyl]-acetyl-9-phenyl-2,3,3a,4,9,9a-hexahydro-1H-benzo[f]isoindole-3a-carboxylic acid]	1330
O=C(Cc1c[nH]c2ccc(Br)cc12)N1C[C@@H]2[C@]3(c4ccccc4)CC[C@@H](c4ccccc43)[C@]2(C(=O)O)C1 (relative stereo) [Example 35, (3aRS, 4SR, 9SR, 9aRS)-4,9-ethano-2-(5-bromo-3-indolyl)acetyl-9-phenyl-2,3,3a,4,9,9a-hexahydro-1H-benzo [f]isoindole-3a-carboxylic acid]	2150
COc1cccc(CC(=O)N2C[C@@H]3[C@]4(c5ccccc5)CC[C@@H](c5ccccc54)[C@]3(C(=O)O)C2)c1OC (relative stereo) [Example 36, (3aRS, 4SR, 9SR, 9aRS)-4,9-ethano-2-(2,3-dimethoxyphenyl)acetyl-9-phenyl-2,3,3a,4,9,9a-hexahydro-1H-benzo[f]isoindole-3a-carboxylic acid]	3700
CC(C)Oc1ccccc1CC(=O)N1C[C@@H]2[C@]3(c4ccccc4)CC[C@@H](c4ccccc43)[C@]2(C(=O)O)C1 (relative stereo) [Example 40, (3aRS,4SR,9SR,9aRS)-4,9-ethano-2-(2-isopropyl-oxyphenyl)acetyl-9-phenyl-2,3,3a,4,9,9a-hexahydro-1H-benzo[f]isoindole-3a-carboxylic acid]	2950
COc1ccccc1CC(=O)N1C[C@@H]2[C@]3(c4ccccc4)CC[C@@H](c4ccccc43)[C@]2(C(=O)N(C)CC(=O)O)C1 (relative stereo) [Example 49, N-[(3aRS,4SR,9SR,9aRS)-4,9-ethano-2-(2-methoxyphenyl)acetyl-9-phenyl-2,3,3a,4,9,9a-hexahydro-1H-benzo[f]isoindol-3a-yl]carbonyl-N-methylglycine]	1100
COc1ccccc1CC(=O)N1C[C@@H]2[C@]3(c4ccccc4)CC[C@@H](c4ccccc43)[C@]2(C(=O)NCCC(=O)O)C1 (relative stereo) [Example 50, N-[(3aRS,4SR,9SR,9aRS)-4,9-ethano-2-(2-methoxyphenyl)acetyl-9-phenyl-2,3,3a,4,9,9a-hexahydro-1H-benzo[f]isoindol-3a-yl]carbonyl-3-aminopropanoic acid]	1300
CNC(=O)[C@@]12CN(C(=O)Cc3ccccc3OC)C[C@@H]1[C@]1(c3ccccc3)CC[C@H]2c2ccccc21 (relative stereo) [Example 54, (3aRS,4SR,9SR,9aRS)-N-methyl-4,9-ethano-2-(2-methoxyphenyl)acetyl-9-phenyl-2,3,3a,4,9,9a-hexahydro-1H-benzo[f]isoindole-3a-carboxamide]	4700
COc1ccccc1CC(=O)N1C[C@@H]2[C@]3(c4ccccc4)CC[C@@H](c4ccccc43)[C@]2(C(=O)N(C)C)C1 (relative stereo) [Example 55, (3aRS,4SR,9SR,9aRS)-N,N-dimethyl-4,9-ethano-2-(2-methoxyphenyl)acetyl-9-phenyl-2,3,3a,4,9,9a-hexahydro-1H-benzo[f]isoindole-3a-carboxamide]	3900
CONC(=O)[C@@]12CN(C(=O)Cc3ccccc3OC)C[C@@H]1[C@]1(c3ccccc3)CC[C@H]2c2ccccc21 (relative stereo) [Example 56, (3aRS,4SR,9SR,9aRS)-N-methoxy-4,9-ethano-2-(2-methoxyphenyl)acetyl-9-phenyl-2,3,3a,4,9,9a-hexahydro-1H-benzo[f]isoindole-3a-carboxamide]	8400
COc1ccccc1CC(=O)N1C[C@@H]2[C@]3(c4ccccc4)CC[C@@H](c4ccccc43)[C@]2(C(=O)NN)C1 (relative stereo) [Example 58, hydrazide of (3aRS,4SR,9SR,9aRS)-4,9-ethano-2-(2-methoxyphenyl)acetyl-9-phenyl-2,3,3a,4,9,9a-hexahydro-1H-benzo[f]isoindole-3a-carboxylic acid]	5050
